Reference: a compilation of properties of binary mixtures (doi:10.1016/j.molliq.2012.09.002)

Assay: xn = mol fraction of the nth substance listed
Details: 101 kPa

CN(CCO)CCO + CCCCCC[n+]1ccn(C)c1.F[B-](F)(F)F
x1 = 1
Details	viscosity [mPa·s]
318.15 K	27.5
323.15 K	22

CCCCCC[n+]1ccn(C)c1.F[B-](F)(F)F + CN(CCO)CCO
viscosity [mPa·s]
Details	x2 = 0	x2 = 0.097	x2 = 0.192	x2 = 0.2909	x2 = 0.3916	x2 = 0.4949	x2 = 0.5936	x2 = 0.6935	x2 = 0.7928	x2 = 0.8824
303.15 K	85	81.7	78.6	75.6	–	–	67.1	64.6	–	60.1
308.15 K	69	65.9	63.1	60.3	57.6	55.1	52.7	50.5	48.3	46.5
313.15 K	55	52.5	50.2	48	45.8	43.7	–	40	38.3	–
318.15 K	43	41.1	39.3	37.6	35.9	–	32.8	31.4	30.1	28.9
323.15 K	36	34.2	32.6	31	29.5	28	26.7	25.5	24.3	23.3
